From US9598466B2, “Glycopeptide constructs and uses thereof” (Sloan-Kettering Institute for Cancer Research, priority 2008, dated 2017)

Assays:
[1] = ELISA of sera from vaccinated mice for antibodies against Gb3; assay type: in vivo, mice (C57BL/6J); conditions: mice vaccinated subcutaneously, unconjugated antigen plus an adjuvant such as QS-21; sera tested against Gb3-ceramide
Procedure: Groups of five mice were vaccinated subcutaneously with Gb3-MUC5AC or Gb3-MUC5AC-KLH conjugate plus adjuvant with appropriate controls. Sera were tested against Gb3-ceramide by ELISA.
Groups of five mice (C57BL/6J, female, 6-8 weeks old) were vaccinated three times with GB3-ceramide conjugate (5 μg equivalent of GB3), MUC5Ac peptide (5 μg equivalent of MUC5Ac), GB3-MUC5Ac-SH conjugate (5 μg equivalent of GB3-MUC5AC), GB3-MUC5Ac-KLH conjugate (1, 5 and 10 μg equivalent of GB3-MUC5Ac), Globo H-KLH conjugate (5 μg equivalent of GloboH) and KLH protein alone (5 μg equivalent of KLH) in 100 μL phosphate buffered saline (PBS) either with an adjuvant (20 μg) or without adjuvant. Vaccines were administered subcutaneously to each mouse on weeks 1, 2, 3, and 7. Mice were bled 7 days after the third vaccination and forth vaccination.
The presence of antibodies was tested by an enzyme-linked immunosorbent assay (ELISA). ELISAs were performed to determine antibody response against GB3, Globo H and KLH. The ELISA plates were coated with either GB3 antigen or Globo H at 0.2 μg/well and 0.1 μg/well respectively in ethanol or KLH at 0.1 μg/well in carbonate buffer (pH 10). The GB3-coated and Globo H coated plates were kept overnight at room temperature to evaporate ethanol, and KLH coated plates were incubated at 4° C. overnight. […] Absorbance was measured at 405 nm.

[2] = tested on: human HLA-DR; conditions: literature (Southwood et al. 1998); cited from earlier work

| Substance | antibodies against Gb3 by ELISA [1] | binding capacity to human HLA-DR alleles [2] | number of different alleles of human HLA-DR bound [2] |
| --- | --- | --- | --- |
| globotriaosyl ceramide [Gb3-ceramide] | failed to produce antibodies against Gb3 | – | – |
| GLAYKFVVPGAATPY | – | prevalently in the nanomolar range | up to 9 |
